# From patent publication US11304944B2, “MetAP2 inhibitors and methods of treating obesity” (SynDevRx, Inc., priority 2013, dated 2022)
# System: DIO Levin rats
# Assay: In vivo testing DIO Levin rats: weight changes, food consumption, insulin, leptin levels
# Conditions: for Final BW: after 68 days, 60% fat diet
# Experimental: CKD-732 as referred to herein is the hemitartrate salt of the following structure:
# Test articles were administered subcutaneously on an every 4 day (q4d) schedule in a diet-induced obesity (DIO) Levin-DS rat model. […] A dietary intervention (Standard Chow, Labdiet 5001; 3.4 kcal/g) was included to compare to the drug interventions. Upon arrival at three weeks of age, the male rats received ad libitum pellets of Harlan Diet TD.06414, 60% of calories from fat, 21% of calories from carbohydrate; 5.1 kcal/g. Prior to dosing the rats were randomized into groups of three animals with an average body weight of 595 gm. […] Compound 1 in the form of the hemitartrate and CKD-732 in the form of the hemitartrate were dissolved in ethanol prior to dilution with vehicle. All doses were administered at a volume of 5.0 ml/kg. […] On day 1, first dose, the rats were 14 weeks of age. Also on day 1, Group 2 was switched from the high fat diet to a standard chow diet; the remaining groups were maintained on a high fat diet for the duration of the study.
# Animals were weighed every other day. Food consumption was measured weekly. On an approximately weekly basis throughout the study, blood samples were taken for assessment of serum chemistries including glucose and insulin. On Day 48 all rats underwent a 4 hour fasted Oral Glucose Tolerance Test (OGTT). Animals were dosed orally (per os, PO) at 8 mL/kg 25% glucose (2 g/kg). On day 68, gross pathology was performed to determine body composition.
# [1] = 0.6 mg/kd (so in the source) q4d sc
substance,measurement,setting,value
poly[HPMA-co-MA-GFLG-N-(trans-4-aminocyclohexyl)carbamoylfumagillol] [Compound 16],Avg. Insulin Day 7,0.3 mg/kg q4d sc,2.27 ng/mL
same,Avg. Insulin Day 15,0.3 mg/kg q4d sc,1.65 ng/mL
same,Avg. Insulin Day 23,0.3 mg/kg q4d sc,1.66 ng/mL
same,Avg. Insulin Day 48,0.3 mg/kg q4d sc,1.70 ng/mL
same,Avg. Insulin Pre-dosing,0.3 mg/kg q4d sc,1.76 ng/mL
same,Group Average Food Consumption Day 1-8,0.3 mg/kg q4d sc,125.2 g
same,Group Average Food Consumption Day 9-15,0.3 mg/kg q4d sc,125.9 g
same,Group Average Food Consumption Day 16-23,0.3 mg/kg q4d sc,128.2 g
same,Group Average Food Consumption Day 24-30,0.3 mg/kg q4d sc,129.3 g
same,Group Average Food Consumption Day 31-36,0.3 mg/kg q4d sc,122.4 g
same,Group Average Food Consumption Day 37-43,0.3 mg/kg q4d sc,131.9 g
same,Group Average Food Consumption Day 44-50,0.3 mg/kg q4d sc,135.6 g
same,Group Average Food Consumption Day 51-57,0.3 mg/kg q4d sc,134.5 g
same,Group Average Food Consumption Day 58-63,0.3 mg/kg q4d sc,134.2 g
same,Group Average Food Consumption Day 63-68,0.3 mg/kg q4d sc,57.6 g
same,Leptin Levels Day 29,0.3 mg/kg q4d sc,3.30
same,Leptin Levels Pre-dose,0.3 mg/kg q4d sc,2.53
same,"Leptin Levels, Day 29, % Change from Baseline",0.3 mg/kg q4d sc,30.3%
same,Final BW,0.3 mg/kg q4d sc,727.3 g
same,Avg. Insulin Day 7,[1],2.09 ng/mL
same,Avg. Insulin Day 15,[1],1.38 ng/mL
same,Avg. Insulin Day 23,[1],1.72 ng/mL
same,Avg. Insulin Day 48,[1],1.91 ng/mL
same,Avg. Insulin Pre-dosing,[1],2.95 ng/mL
same,Group Average Food Consumption Day 1-8,[1],121.2 g
same,Group Average Food Consumption Day 9-15,[1],101.0 g
same,Group Average Food Consumption Day 16-23,[1],109.7 g
same,Group Average Food Consumption Day 24-30,[1],122.1 g
same,Group Average Food Consumption Day 31-36,[1],125.8 g
same,Group Average Food Consumption Day 37-43,[1],116.6 g
same,Group Average Food Consumption Day 44-50,[1],118.2 g
same,Group Average Food Consumption Day 51-57,[1],123.1 g
same,Group Average Food Consumption Day 58-63,[1],130.7 g
same,Group Average Food Consumption Day 63-68,[1],45.9 g
same,Leptin Levels Day 29,1 mg/kg q4d sc,4.53
same,Leptin Levels Pre-dose,1 mg/kg q4d sc,4.67
same,"Leptin Levels, Day 29, % Change from Baseline",1 mg/kg q4d sc,−2.9%
same,Final BW,1.0 mg/kg q4d sc,668.6 g
same,lower body weight than rats on the standard chow diet,"3 mg/kg Q4D, end of the study",6.2%
same,lower body weight than the vehicle control,"3 mg/kg Q4D, end of the study",22.1%
same,Avg. Insulin Day 7,3 mg/kg q4d sc,0.66 ng/mL
same,Avg. Insulin Day 15,3 mg/kg q4d sc,0.54 ng/mL
same,Avg. Insulin Day 23,3 mg/kg q4d sc,1.26 ng/mL
same,Avg. Insulin Day 48,3 mg/kg q4d sc,1.08 ng/mL
same,Avg. Insulin Pre-dosing,3 mg/kg q4d sc,1.49 ng/mL
same,Group Average Food Consumption Day 1-8,3 mg/kg q4d sc,97.3 g
same,Group Average Food Consumption Day 9-15,3 mg/kg q4d sc,63.2 g
same,Group Average Food Consumption Day 16-23,3 mg/kg q4d sc,123.4 g
same,Group Average Food Consumption Day 24-30,3 mg/kg q4d sc,108.7 g
same,Group Average Food Consumption Day 31-36,3 mg/kg q4d sc,102.6 g
same,Group Average Food Consumption Day 37-43,3 mg/kg q4d sc,105.5 g
same,Group Average Food Consumption Day 44-50,3 mg/kg q4d sc,129.9 g
same,Group Average Food Consumption Day 51-57,3 mg/kg q4d sc,115.2 g
same,Group Average Food Consumption Day 58-63,3 mg/kg q4d sc,128.0 g
same,Group Average Food Consumption Day 63-68,3 mg/kg q4d sc,43.3 g
same,Leptin Levels Day 29,3 mg/kg q4d sc,1.36
same,Leptin Levels Pre-dose,3 mg/kg q4d sc,2.47
same,"Leptin Levels, Day 29, % Change from Baseline",3 mg/kg q4d sc,−45.0%
same,Final BW,3.0 mg/kg q4d sc,604.7 g
same,Avg. Insulin Day 7,"6 mg, q7d sc",1.96 ng/mL
same,Avg. Insulin Day 15,"6 mg, q7d sc",1.00 ng/mL
same,Avg. Insulin Day 23,"6 mg, q7d sc",1.11 ng/mL
same,Avg. Insulin Day 48,"6 mg, q7d sc",1.32 ng/mL
same,Avg. Insulin Pre-dosing,"6 mg, q7d sc",3.06 ng/mL
same,Group Average Food Consumption Day 1-8,"6 mg, q7d sc",105.2 g
same,Group Average Food Consumption Day 9-15,"6 mg, q7d sc",48.3 g
same,Group Average Food Consumption Day 16-23,"6 mg, q7d sc",43.9 g
same,Group Average Food Consumption Day 24-30,"6 mg, q7d sc",139.8 g
same,Group Average Food Consumption Day 31-36,"6 mg, q7d sc",117.4 g
same,Group Average Food Consumption Day 37-43,"6 mg, q7d sc",126.3 g
same,Group Average Food Consumption Day 44-50,"6 mg, q7d sc",81.2 g
same,Group Average Food Consumption Day 51-57,"6 mg, q7d sc",107.5 g
same,Group Average Food Consumption Day 58-63,"6 mg, q7d sc",107.7 g
same,Group Average Food Consumption Day 63-68,"6 mg, q7d sc",19.8 g
same,Leptin Levels Day 29,"6 mg, q7d sc",2.00
same,Leptin Levels Pre-dose,"6 mg, q7d sc",3.93
same,"Leptin Levels, Day 29, % Change from Baseline","6 mg, q7d sc",−49.2%
same,Final BW,6.0 mg/kg q7d sc,596.7 g
same,change in leptin levels from baseline versus dose,FIG. 18,dose-dependent response
same,"weight loss versus fumagillol exposure, compared to Compound 1 or CKD-732","day 68, FIG. 12",greater weight loss with significantly lower fumagillol exposure
